Test systems include A498; HCT-116; SF-295; HCC 2998; HOP-62; UO-31; SN12C; KM12; SF-268; MOLT-4; HOP-92; IGROV-1; OVCAR-5; HL-60; OVCAR-4; A549.
Holding throughout (test): NCI-60 cell line screen, 48 h

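All cell lines were grown in 96-well plates and treated with compound for 48 hours. GI50: concentration for 50% inhibition of growth.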 Activity calls are given as the source filed them. Cut-off read from the data, not from the text of the source: active = GI50 up to about 1.1 µM and inactive = higher.

Regarding `O=c1oc2c3ccc4ccccc4c3n(Cc3nc4ccccc4[nH]3)c2c2ccccc12`, the GI50 with A498 was 24.4 µM (inactive); with HCT-116, 4.72 µM (inactive); with SF-295, 9.14 µM (inactive); in the experiment with HCC 2998, 40.4 µM (inactive); in the experiment on HOP-62, 4.16 µM (inactive); in the experiment with UO-31, 1.95 µM (inactive). The GI50 in the experiment on SN12C is 3.72 µM (inactive); in the experiment on KM12, > 64.4 µM (inactive); with SF-268, 15.6 µM (inactive); in the experiment with MOLT-4, 1.11 µM (active); in the experiment on HOP-92 it was > 29.3 µM (inactive); in the experiment with IGROV-1, > 29.3 µM (inactive). Moreover, the GI50 in the experiment on OVCAR-5 is > 36.2 µM (inactive); with HL-60, 3.7 µM (inactive); in the experiment with OVCAR-4, 24.9 µM (inactive); with A549, 5.61 µM (inactive).

For the compound `O/N=C/c1ccc(O)c(O)c1`, the GI50 in the experiment with A498 is > 100 µM (inactive); in the experiment with HCT-116 it was > 100 µM (inactive); in the experiment with SF-295, > 100 µM (inactive); in the experiment with HCC 2998, > 100 µM (inactive); in the experiment on HOP-62, > 100 µM (inactive); in the experiment on UO-31, 54 µM (inactive). In addition, the GI50 in the experiment on SN12C is > 100 µM (inactive); in the experiment with KM12, > 100 µM (inactive); in the experiment on SF-268 it was > 100 µM (inactive); in the experiment on MOLT-4, 20.5 µM (inactive); with HOP-92 it was > 100 µM (inactive); with IGROV-1 it was 65 µM (inactive). Also, the GI50 is > 100 µM (inactive) with OVCAR-5, 12.8 µM (inactive) in the experiment with HL-60, 77.3 µM (inactive) in the experiment with OVCAR-4 and > 100 µM (inactive) in the experiment on A549.

`Cn1cc2ccccc2c1-c1nc(F)nc(Oc2ccc3c(c2)CC[C@@H]2C3CC[C@@]3(C)C2CC[C@@H]3O)n1` (some centres not stated): the GI50 was 20.5 µM (inactive) with A498; 11.7 µM (inactive) in the experiment on HCT-116; 22.6 µM (inactive) in the experiment with SF-295; 18.3 µM (inactive) in the experiment on HCC 2998; 9.59 µM (inactive) in the experiment on HOP-62; 24.4 µM (inactive) in the experiment on UO-31. For the same compound, the GI50 was 7.87 µM (inactive) in the experiment on SN12C; 11.4 µM (inactive) in the experiment with KM12; 9.53 µM (inactive) in the experiment on SF-268; 4.07 µM (inactive) in the experiment on MOLT-4; 7.78 µM (inactive) with HOP-92; 6.78 µM (inactive) in the experiment with IGROV-1. The GI50 in the experiment with OVCAR-5 was 18.6 µM (inactive); in the experiment on HL-60, 3.81 µM (inactive); in the experiment with OVCAR-4, 7.43 µM (inactive); in the experiment with A549, 24.8 µM (inactive).

With `Cc1cc(NS(=O)(=O)c2ccc(NC(=O)c3cccc4c(=O)c5ccccc5[nH]c34)cc2)no1`, the GI50 with A498 was 28.8 µM (inactive); in the experiment on HCT-116 it was 36.9 µM (inactive); in the experiment with SF-295 it was > 10 µM (inactive); in the experiment with HCC 2998, 36.5 µM (inactive); in the experiment on HOP-62, 21.6 µM (inactive); with UO-31, 15.7 µM (inactive). The GI50 in the experiment on SN12C is 44.1 µM (inactive); in the experiment with KM12 it was 78.3 µM (inactive); in the experiment on SF-268, 30.5 µM (inactive); with MOLT-4 it was 39.4 µM (inactive); in the experiment on HOP-92, 29.5 µM (inactive); in the experiment on IGROV-1 it was 40.5 µM (inactive). The GI50 in the experiment with OVCAR-5 is 94.6 µM (inactive); in the experiment with HL-60, 30.9 µM (inactive); in the experiment with OVCAR-4, 51.6 µM (inactive); in the experiment with A549 it was > 100 µM (inactive).

As to `CCCCN/C(=N/C#N)NCc1ccccc1`, the GI50 was > 100 µM (inactive) with A498; > 100 µM (inactive) in the experiment with HCT-116; > 100 µM (inactive) in the experiment on SF-295; 88.5 µM (inactive) in the experiment on HCC 2998; > 100 µM (inactive) with HOP-62; > 100 µM (inactive) in the experiment on UO-31. Moreover, the GI50 in the experiment on SN12C, with KM12, with SF-268, in the experiment with MOLT-4, in the experiment with HOP-92 and with IGROV-1 was > 100 µM (inactive) in each case. Further, the GI50 in the experiment on OVCAR-5, with HL-60, with OVCAR-4 and with A549 was > 100 µM (inactive) throughout.

For `O=C1CCC2CCOc3ccc(O)c1c32` (configuration not stated), the GI50 with A498, in the experiment on HCT-116, in the experiment on SF-295, in the experiment on HCC 2998, in the experiment with HOP-62 and with UO-31 was > 100 µM (inactive) in each case. Also, the GI50 in the experiment with SN12C, in the experiment on KM12, with SF-268, in the experiment on MOLT-4, with HOP-92 and with IGROV-1 was > 100 µM (inactive) each time. The GI50 in the experiment on OVCAR-5, in the experiment with HL-60, in the experiment with OVCAR-4 and in the experiment on A549 was > 100 µM (inactive) in each case.

Turning to `C(/COc1cccnc1)=N\NC1=NCCN1`, the GI50 with A498, in the experiment with HCT-116, with SF-295, in the experiment with HCC 2998, in the experiment with HOP-62 and with UO-31 was > 100 µM (inactive) throughout. The GI50 in the experiment with SN12C, in the experiment on KM12, in the experiment with SF-268, with MOLT-4, in the experiment on HOP-92 and with IGROV-1 was > 100 µM (inactive) throughout. For the same compound, the GI50 with OVCAR-5, with HL-60, in the experiment on OVCAR-4 and in the experiment on A549 was > 100 µM (inactive) throughout.

In the case of `CCOc1ccc(/C=N\N2C(=O)c3ccccc3C2=O)cc1`, the GI50 in the experiment on A498, in the experiment on HCT-116, in the experiment on SF-295, in the experiment with HCC 2998, with HOP-62 and with UO-31 was > 100 µM (inactive) throughout. The GI50 in the experiment with SN12C, in the experiment with KM12, in the experiment with SF-268, in the experiment with MOLT-4, in the experiment with HOP-92 and in the experiment with IGROV-1 was > 100 µM (inactive) each time. The GI50 in the experiment with OVCAR-5, with HL-60, in the experiment on OVCAR-4 and in the experiment with A549 was > 100 µM (inactive) each time.

In the case of `CCOC(=O)c1sc2c(C(=O)OCC)n3ccccc3c2c1N`, the GI50 with A498 was 71.9 µM (inactive); with HCT-116 it was 81.5 µM (inactive); with SF-295, 44.6 µM (inactive); in the experiment on HCC 2998, > 100 µM (inactive); with HOP-62 it was 19.2 µM (inactive); in the experiment on UO-31 it was 26.1 µM (inactive). For the same compound, the GI50 with SN12C was 96.8 µM (inactive); in the experiment with KM12, > 100 µM (inactive); with SF-268, 21.7 µM (inactive); in the experiment on MOLT-4, > 100 µM (inactive); with HOP-92 it was 13.4 µM (inactive); in the experiment on IGROV-1, > 100 µM (inactive). Moreover, the GI50 with OVCAR-5, in the experiment with HL-60, with OVCAR-4 and with A549 was > 100 µM (inactive) throughout.

Consider `COC(=O)C1=C(C)C(=O)C2(CCCCCC2C(=O)OC)C1` (configuration not stated), for which the GI50 in the experiment with A498 is > 100 µM (inactive); in the experiment with HCT-116, > 100 µM (inactive); in the experiment on SF-295 it was > 100 µM (inactive); in the experiment with HCC 2998, > 100 µM (inactive); in the experiment on HOP-62 it was 68.7 µM (inactive); in the experiment with UO-31 it was > 100 µM (inactive). In addition, the GI50 in the experiment on SN12C, with KM12, in the experiment on SF-268, in the experiment on MOLT-4, in the experiment on HOP-92 and in the experiment with IGROV-1 was > 100 µM (inactive) throughout. Besides, the GI50 with OVCAR-5, in the experiment on HL-60, in the experiment with OVCAR-4 and in the experiment with A549 was > 100 µM (inactive) throughout.

Turning to `C/C(=C\CC[C@]1(C)OC(C)(C)OC1CC/C(C)=C/CO[Si](c1ccccc1)(c1ccccc1)C(C)(C)C)CC/C=C/CO[Si](C)(C)C(C)(C)C` (some centres not stated), the GI50 with A498, in the experiment with HCT-116, with SF-295, in the experiment on HCC 2998, in the experiment on HOP-62 and in the experiment on UO-31 was > 100 µM (inactive) throughout. Further, the GI50 with SN12C, in the experiment with KM12, in the experiment with SF-268, in the experiment with MOLT-4, in the experiment with HOP-92 and in the experiment with IGROV-1 was > 100 µM (inactive) throughout. The GI50 with OVCAR-5, with HL-60, with OVCAR-4 and in the experiment with A549 was > 100 µM (inactive) in each case.

Take `CCN1/C(=C/C(C)=C/c2sc3ccccc3[n+]2CC)Sc2ccccc21`: the GI50 was 0.381 µM (active) in the experiment on A498; 0.0485 µM (active) with HCT-116; 0.112 µM (active) in the experiment on SF-295; 0.255 µM (active) with HCC 2998; 0.122 µM (active) in the experiment on HOP-62; 0.0811 µM (active) in the experiment with UO-31. Moreover, the GI50 with SN12C was 0.234 µM (active); with KM12, 0.0641 µM (active); in the experiment with SF-268, 0.447 µM (active); with MOLT-4, 0.0637 µM (active); with HOP-92 it was < 0.01 µM (active); with IGROV-1 it was 0.279 µM (active). Also, the GI50 with OVCAR-5 is 0.431 µM (active); in the experiment on HL-60 it was 0.0405 µM (active); in the experiment on OVCAR-4, 0.361 µM (active); in the experiment on A549, 0.0843 µM (active).

For the origin of these results see ChEMBL document CHEMBL1201862, “PubChem BioAssay data set” (2004).
